From patent US8962263B2, “Methods and compositions for detecting the activation state of multiple proteins in single cells” (The Board of Trustees of the Leland Stanford Junior …, priority 2001, dated 2015)

Assays:
[1] = test system: CD19+ human B cells
Protocol: Apoptosis was measured by annexin-V binding detected by flow cytometry, and gated for CD19+, cells. […] Apoptosis was measured by annexin-V binding assay.
Antibody cross-linking experiments were performed using mAbs to anti-ICAM-1, anti-ICAM-2, anti-ICAM-3, anti-CD43, or anti-CD44 that recognizes the N-terminal region (extracellular domain) at 10 μg/ml. Spin dialysis (Biorad) was used for buffer exchange of azide containing antibodies (0.01%) to phosphate buffered saline buffer pH 7.4. Anti-mouse IgG (Sigma) was used as a control antibody in cross-linking experiments. 1×10^6 Jurkat, 1×10^6 BaF3, or 1×10^7 PBMC cells were serum starved for 4 hours respectively (except PBMC). Cells were incubated with either mAb (10 μg/ml) or mouse IgG (10 μg/ml) at 37° C. for the indicated time. Time points began post serum starvation to attenuate most of the signaling pathways or as indicated. […] Cells extracts were taken and subjected to either immunoprecipitation or immunoblotting were appropriate. Primary cells were subjected to apoptotic treatment followed by preparation for flow cytometry. GTPγS was made cell permeant by pre-incubating compound with Fugene (Roche Biochemicals) in a 1:4 molar ratio for 30 minutes at 25° C. prior to being applied to cells.

[2] = test system: Jurkat T cells; test: anti-Fas induced apoptosis in ICAM-2 crosslinked Jurkat cells, annexin-V binding assay; type: cell-based, human; conditions: inhibitor 10 μM 1 hour, anti-Fas 50 ng/ml 8 hours
Protocol: A) ICAM-2, crosslinking induced AKT activity in Jurkat T cells and subsequent phosphorylation of GSK3, FKHR, and AFX as a function of time. Serum starved Jurkat T cells were incubated with either isotype control or anti-human ICAM-2, (10, μg/ml) for the indicated times. AKT kinase activity was determined as described. Immunoblot analysis verified AKT dual phosphorylation, FKHR and GSK3 phosphorylation, and BAD phosphorylation as a function of ICAM-2, crosslinking. B) ICAM-2 crosslinking induces AKT activity in BaF3, pre-B cells. […] ICAM-2, was crosslinked on 106, Jurkat T cells using an ICAM-2, mAb (10, μg/ml) 30, minutes prior to treatment with staurosporine (+) or DMSO vehicle (−). Apoptosis was determined by flow cytometry using annexin-V binding assay. […] Cells were assessed for apoptosis by annexin-V binding assay. […]
Apoptosis was determined either by counting pyknotic nuclei, annexin-V binding by flow cytometry, or TUNEL BrdU staining by flow cytometry as indicated. Apoptosis was induced either by staurosporine (1 μm), treatment with anti-mouse Fas (5 μq/ml Santa Cruz Biotechnology (SCB), anti-human Fas ([…]) as indicated in appropriate experiment, IL-3 withdrawal-(24 hrs) or as indicated. For pyknolic nuclei count, NIH3T3 cells were grown on glass coverslips and assayed for apoptosis. Suspension cells were analyzed by nuclear staining with 25 μM acridine orange/25 μm ethidium bromide or 5 μg/ml Hoechst 33342 (Molecular Probes, Eugene, Oreg.). Apoptosis was identified by the presence of characteristic pyknotic nuclei as described (Jacobson and Raff, 1995). At least 5 individual fields were photographed and counted using a Zeiss axioscope fluorescence microscope. […] The cells were trypsinized and viable cells counted following trypan blue staining. Untreated cells were counted at the time of treatment. % survival represents (number of viable cells post-treatment)/(number of viable cells pretreatment). […] Flow cytometry analysis was performed on a BD FACSCalibur machine with CELLQuest and analyzed using FlowJo software (Tree Star).

[3] = test system: p44/42 MAPK; test: intracellular phospho-p44/42 MAPK by flow cytometry in ICAM-2 treated Jurkat cells; type: cell-based, human; conditions: chemical agents 10 μM, EDTA 1 mM; mAbs titrated prior to ICAM-2
Excerpt: A) Mean fluorescent intensity values (MFI) of ICAM-2-FITC (adhesion) and mAb24-Alexa633, (LFA-1, activation) in treated Jurkat cells (as above). Control unstimulated and/or compound pretreated values were subtracted. B) Top panel: Intracellular phospho-p44/42, MAPK detection as a function of ICAM-2, dose in Jurkat cells by flow cytometry (see Material and Methods). Mean fluorescent intensity values (MFI) were plotted±standard deviation (SD). Bottom panel: ICAM-2, treated Jurkat cells were stained for intracellular phospho-p44/42, MAPK as described above. mAbs to β2, and αL, integrins (10, μg/ml, 10, minutes) were titrated prior to ICAM-2, treatment as indicated and plotted for MFI±SD. C) ICAM-2, induced p44/42, MAPK activity is blocked by β2, and αL, integrin antibodies as determined by a p44/42 MAPK kinase assay. Conditions for induction and inhibition are as described above. Recombinant active p44/42, MAPK served as an internal positive control (denoted by “+”). D) Inhibition and activation profile for intracellular phospho-p44/42, by flow cytometry in the presences of chemical agents (10, μM), EDTA (1, mM), or PMA, ionomycin and ICAM-2, stimulus (as indicated above). MFI values±SD are plotted.
(§1) Intracellular and extracellular staining was performed as described (Perez and Nolan, 2002). Intracellular probes for active kinases were made by conjugating phospho-specific antibodies to the ALEXA FLUOR® dye series as described and used in phospho-protein optimized conditions (Perez and Nolan, 2002). Kinetic analyses was performed by direct application of fixation buffer in time synchronized 96-wells maintained at 37° C. Intracellular actin and microtubule staining was performed using phalloidin-Alexa633 and taxol-Alexa546 dyes (Molecular Probes). Adhesion and clustering assays were performed using ICAM-2-FITC as described in text. LFA-1 activation was assessed by either mAb24-Alexa633 or mAb24-Alexa546 conjugate, surface stained at 37° C. Flow cytometry data are representative of 3 independent experiments of 10^6 cells/sample. 10-50,000 events were collected and manually calibrated on a FACSCalibur™ machine. Data plotted in bar graph format is expressed as geometric mean fluorescence intensity (MFI) and normalized for isotype controls. Log ratios are defined as the MFI of stimulus to the MFI of unstimulated cells. Data was analyzed using Flowjo™ software (Treestar).

[4] = test system: ezrin; test: phosphotyrosine-protein based elisa for ezrin tyrosine phosphorylation upon ICAM-2 ligation; type: cell-based, human; conditions: Jurkat cells
Protocol: A) Expression levels of ICAM-2, vary across cell lines of different origins. Quantitative flow cytometry analysis was performed to assess the number of ICAM-2 surface molecules across transformed and untransformed fibroblasts, lymphocytes of T-cell and different B-cell differentiation states and myeloid lineages (see Material and Methods for elaboration). The number of surface molecules/cell is expressed as the mean (bar)+/−SD of triplicate experiments. B) Crosslinking of endogenous ICAM-2, induces ezrin tyrosine phosphorylation and enhanced ICAM-2, interaction. Jurkat cells were crosslinked for ICAM-2 using monoclonal antibody for the indicated times and subjected to immunoprecipitation/immunoblotting as indicated. C) Inhibition of ezrin phosphotyrosine by chemical inhibitors of src and Rho-dependent kinases. D) Ezrin phosphorylation and enhanced interaction with the p85, subunit of PI3K as a function of ICAM-2. Determined as described above. E) PDK-1, activity as a function of ICAM-2, ligation, as described above). F) PI3K and AKT localize to the membrane as a function of ICAM-2, ligation. Membrane/cytosolic fractionation was performed on ICAM-2, ligated Jurkat cells as a function of time and subjected to immunoblotting for PI3K and AKT.
In order to identify upstream kineses capable of tyrosine phosphorylating ezrin as a function of ICAM-2 ligation, we developed a phosphotyrosine-protein based elisa to screen for the inhibition of ezrin tyrosine phosphorylation in vivo by various known inhibitors of protein kineses (Perez and Nolan, manuscript in preparation). […] Given the design of the screen to detect tyrosine residue phosphorylation, we speculate that activation of Rho-dependent processes may be a prerequisite for ezrin to be tyrosine phosphorylated by src (elaborated below).

[5] = target: T1, cell surface LFA-1 (Homo sapiens, UniProt P20701); test: ICAM-2-FITC surface binding on Jurkat cells by flow cytometry (single cell binding measurements); conditions: cytochalisin D treated Jurkat cells
T1 construct: within the physiological context of cell surface LFA-1; endogenous in cells; host or cells: Jurkat T cells
T1 sequence (P20701 26-1170): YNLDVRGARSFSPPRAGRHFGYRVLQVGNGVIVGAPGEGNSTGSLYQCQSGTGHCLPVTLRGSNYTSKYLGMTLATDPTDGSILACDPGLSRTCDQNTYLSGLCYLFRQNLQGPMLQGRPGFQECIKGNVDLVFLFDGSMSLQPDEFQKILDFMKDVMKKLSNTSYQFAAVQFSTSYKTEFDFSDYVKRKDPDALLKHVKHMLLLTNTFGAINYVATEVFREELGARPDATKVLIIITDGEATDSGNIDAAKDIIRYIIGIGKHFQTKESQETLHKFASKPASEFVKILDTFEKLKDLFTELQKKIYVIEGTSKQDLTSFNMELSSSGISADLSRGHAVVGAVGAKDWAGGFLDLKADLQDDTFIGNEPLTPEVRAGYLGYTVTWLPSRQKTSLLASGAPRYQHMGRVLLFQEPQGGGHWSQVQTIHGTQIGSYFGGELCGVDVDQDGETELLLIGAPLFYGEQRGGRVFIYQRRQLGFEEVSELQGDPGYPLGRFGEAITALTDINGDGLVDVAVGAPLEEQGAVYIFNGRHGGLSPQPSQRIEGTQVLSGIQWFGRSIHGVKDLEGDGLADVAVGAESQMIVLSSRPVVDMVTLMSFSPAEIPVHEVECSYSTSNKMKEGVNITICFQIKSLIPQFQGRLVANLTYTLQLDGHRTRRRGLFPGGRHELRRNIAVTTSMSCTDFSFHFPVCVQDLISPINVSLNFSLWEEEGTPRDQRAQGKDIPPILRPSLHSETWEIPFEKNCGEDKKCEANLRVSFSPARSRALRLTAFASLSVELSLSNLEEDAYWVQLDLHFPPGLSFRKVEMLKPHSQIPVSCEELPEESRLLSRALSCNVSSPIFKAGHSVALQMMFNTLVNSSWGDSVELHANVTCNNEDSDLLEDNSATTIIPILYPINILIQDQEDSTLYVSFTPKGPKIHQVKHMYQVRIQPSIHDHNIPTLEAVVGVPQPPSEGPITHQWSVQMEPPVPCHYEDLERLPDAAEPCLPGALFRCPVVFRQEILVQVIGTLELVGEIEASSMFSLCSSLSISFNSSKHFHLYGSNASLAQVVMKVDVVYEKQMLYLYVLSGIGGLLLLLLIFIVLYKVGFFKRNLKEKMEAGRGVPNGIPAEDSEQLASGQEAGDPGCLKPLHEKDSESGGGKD
T1 sequence (P05107 23-769 partner): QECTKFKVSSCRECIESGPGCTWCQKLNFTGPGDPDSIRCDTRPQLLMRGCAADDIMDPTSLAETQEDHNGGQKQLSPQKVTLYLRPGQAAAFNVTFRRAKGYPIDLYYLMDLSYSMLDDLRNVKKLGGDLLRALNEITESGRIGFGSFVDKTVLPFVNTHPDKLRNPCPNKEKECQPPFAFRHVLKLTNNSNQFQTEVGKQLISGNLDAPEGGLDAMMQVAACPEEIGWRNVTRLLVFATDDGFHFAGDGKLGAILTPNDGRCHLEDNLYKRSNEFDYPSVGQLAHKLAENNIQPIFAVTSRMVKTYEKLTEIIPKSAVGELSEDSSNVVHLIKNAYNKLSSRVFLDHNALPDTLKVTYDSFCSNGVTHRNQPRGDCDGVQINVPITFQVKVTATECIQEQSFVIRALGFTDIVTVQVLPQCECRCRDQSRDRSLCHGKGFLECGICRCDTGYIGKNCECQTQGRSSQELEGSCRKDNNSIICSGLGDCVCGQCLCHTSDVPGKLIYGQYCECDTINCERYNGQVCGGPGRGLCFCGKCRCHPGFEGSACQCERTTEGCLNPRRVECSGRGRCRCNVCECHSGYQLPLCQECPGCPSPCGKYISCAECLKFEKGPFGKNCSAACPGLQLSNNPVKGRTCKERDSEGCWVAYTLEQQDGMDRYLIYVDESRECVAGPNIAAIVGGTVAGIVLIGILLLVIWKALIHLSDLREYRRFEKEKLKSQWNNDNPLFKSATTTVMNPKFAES
Protocol: A) Purified human ICAM-2, from retrovirally transduced NIH3T3, (see materials and methods) was tested for purity, size, and aggregate formation by native gel electrophoresis and gel filtration. Analysis of purified ICAM-2, from two different preps and ICAM2-FC from NSO cells. Molecular weight was calculated using relative distance migration from a molecular weight standard. Concentration was determined using serial dilutions of BSA as a standard. […] B) ICAM-2, ligand binding to cell surface as a function of time. 5×10^6, unstimulated and PMA stimulated (1, μg/ml, 30, min) Jurkat T cells were incubated with ICAM-2-FITC or LFA-1-FITC antibody (1, μg/ml) and subjected to time dependent flow cytometry. Mean fluorescence intensity was plotted per time of a gated homogenous cell population. Flow rate was maintained at 200-300, cells/second, with fluorescence intensity values acquired at 10, millisecond intervals for 1200, seconds. C) Flow cytometric analysis of ICAM-2-FITC and a-LFA-1-FITC surface binding on cytochalisin D treated (10, μM, 30, min) Jurkat cells at 37° C. and 4° C. D) Curve fit analysis of ICAM-2-FITC binding per 10^4, cells. Jurkat cells were incubated with ICAM-2-FITC at 37° C. for 30, min at indicated concentrations in 50, μL volume. Cells were washed 1×, and analyzed for mean fluorescent intensity (MFI) of 10^4, cells. Percent ICAM-2-FITC bound was calculated from the following equation: 100×[(MFI[×]−MFIunstained)/(MFI[saturated]−MFIunstained)] where [×]=ICAM-2-FITC concentration and [saturated]=concentration that saturated binding. Values were fit to the equation Y=m1*M0/(m2+M0) (see materials and methods).
Full length ICAM2 cDNA was obtained from Jurkat cells and cloned into retroviral vector PBM-Z-IN at the BamHI/Sal1 site as described (Perez et al., 2002). Human ICAM-2 was overexpressed in NIH3T3 cells by retroviral infection and harvested by immunoaffinity chromatography. ICAM-2 was affinity purified using a two step lysing procedure and subsequent purification on an anti-ICAM-2 solid support. […] Batch lysate of harvested supernatant was performed (4° C., for 2 hrs), and washed 4 times in buffer C (0.1% Tween-20, PBS pH 7.4). ICAM-2 protein was eluted by 4.5 M NaCl (in Tris pH 6.8), dialyzed overnight (in PBS pH 7.4, 0.001% azide, 0.01% glycerol, 4° C.), concentrated using size exclusion spin chromatography and stabilized using 0.01% glycerol. Anti-ICAM-2 solid support was re-equilibrated in buffer C, stored in 0.001% thimerosol and re-used up to 3 times. Purity was >98% as assessed by coomasie gel. […] Gel imaging was performed on a VersaDoc machine (Biorad) and analyzed using Quantity One quantitation software (Biorad). […]

[6] = test system: LFA-1; test: LFA-1 activation by mAb24-Alexa633 staining, flow cytometry; type: cell-based, human; conditions: Jurkat cells; agents 10 μM 30 min, PMA 1 μg/ml, prior to ICAM-2 10 μg/ml 30 min
Protocol: A) Confocal microscopy of actin and microtubule architecture upon ICAM-2, stimulus (10, μg/ml, 30, min) in Jurkat cells. Actin was stained by phalloidin-alexa633, and tubulin by taxol-alexa546. Inserts display enlarged cell image of representative treatment B) Flow cytometric staining for actin and microtubules as described above. C) Left: Fluorescence topography analysis of ICAM-2-FITC (1 μg/ml, time as indicated) surface distribution. Intensity color gradient depicts high and low fluorescent intensity values. Right: Confocal microscopy of ICAM-2-FITC surface binding (10 μg/ml, 30, min) and anti-β2-alexa568, (clone CTB104). D) Staining for ICAM-2-FITC surface binding (fluorescence intensity) and surface distribution (fluorescence pulse) in cytochalisin D treated Jurkat cells at 37° C. and 4° C. by flow cytometry. E) Values for ICAM-2-FITC fluorescence intensity per time-of-flight per cell as described in text. F) Flow cytometric staining for LFA-1 activation by mAb24-alexa633. Stimuli as indicated (10, μM, 30, min), PMA (1, μg/ml) prior to ICAM-2, stimulation (10, μg/ml, 30, min). Staining was performed at 37° C. G) Mean fluorescence intensity (MFI) values of mAb24-633, and ICAM-2, cluster values, computed as described above, as a function of time.
as §1

Molecule	apoptosis in primary cells on incubation with compound [1]	ICAM-2 crosslinking protection against Fas induced apoptosis [2]	effect on ICAM-2 induced p44/42 MAPK phosphorylation [3]	tyrosine phosphorylation of ezrin [4]	LFA-1 receptor clustering and ICAM-2 binding [5]	LFA-1 activation (mAb24 binding) [6]
Nc1nc2c(ncn2[C@@H]2O[C@H](COP(=O)(O)OP(=O)(O)OP(O)(O)=S)[C@@H](O)[C@H]2O)c(=O)[nH]1 [GTPγS]	induced apoptosis	abrogated				
CO[C@H]1[C@@H](OC)C[C@H](C)[C@@H](OC)C2=CC(=O)C=C(NC(=O)/C(C)=C/C=C\[C@H](OC)[C@@H](OC(N)=O)/C(C)=C/[C@@H]1C)C2=O [herbimycin A]	induced apoptosis	abrogated	no effect	inhibit tyrosine phosphorylation of ezrin		
cytochalisin D			diminished		enhanced LFA-1 receptor clustering and subsequent ICAM-2 binding	attenuated
